Measured values as given in ChEMBL document CHEMBL2331515, “Design, synthesis, and pharmacological characterization of novel endomorphin-1 analogues as extremely potent μ-opioid agonists” (J Med Chem, 2013).
Activity calls are given as the source filed them. The calls are words filed in the database; no cut-off is given here.

Key:
Mus musculus [1] = assay: Antinociceptive activity in icv dosed Kunming mouse assessed as tail withdrawal latency by hot water tail-flick test; type: functional; conditions: for ED50: central
Mus musculus [2] = assay: Antinociceptive activity in Kunming mouse assessed as tail withdrawal latency at 2 mg/kg, iv by hot water tail-flick test in presence of naloxone methiodide; type: functional, organism-based; parameters: dose 2 mg/kg
Mus musculus [3] = assay: Antinociceptive activity in Kunming mouse assessed as tail withdrawal latency at 2 mg/kg, iv by hot water tail-flick test in presence of naloxone; type: functional, organism-based; parameters: dose 2 mg/kg
Mus musculus [4] = assay: Antinociceptive activity in Kunming mouse assessed as tail withdrawal latency at 2 mg/kg, iv after 15 to 20 mins by hot water tail-flick test relative to control; type: functional, organism-based; parameters: dose 2 mg/kg
Mus musculus [5] = assay: Antinociceptive activity in icv dosed Kunming mouse assessed as tail withdrawal latency by hot water tail-flick test in presence of naloxone; type: functional, organism-based
Mus musculus [6] = assay: Antinociceptive activity in Kunming mouse assessed as tail withdrawal latency at 0.67 to 20 nmol/kg, icv by hot water tail-flick test; type: functional, organism-based; conditions: TDE = time-dependent effect
[7] = Half life in mouse brain homogenate by RP-HPLC analysis; type: ADME, tissue-based
Mu-type opioid receptor [8] = target: T1, Mu-type opioid receptor (Homo sapiens, UniProt P35372); assay: Agonist activity at FLAG-tagged mu-type opioid receptor (unknown origin) expressed in HEK293 cells assessed as stimulation of ERK1/2 phosphorylation at 1 uM after 2 mins by Western blotting analysis; type: cell-based
T1 sequence (P35372 whole entry): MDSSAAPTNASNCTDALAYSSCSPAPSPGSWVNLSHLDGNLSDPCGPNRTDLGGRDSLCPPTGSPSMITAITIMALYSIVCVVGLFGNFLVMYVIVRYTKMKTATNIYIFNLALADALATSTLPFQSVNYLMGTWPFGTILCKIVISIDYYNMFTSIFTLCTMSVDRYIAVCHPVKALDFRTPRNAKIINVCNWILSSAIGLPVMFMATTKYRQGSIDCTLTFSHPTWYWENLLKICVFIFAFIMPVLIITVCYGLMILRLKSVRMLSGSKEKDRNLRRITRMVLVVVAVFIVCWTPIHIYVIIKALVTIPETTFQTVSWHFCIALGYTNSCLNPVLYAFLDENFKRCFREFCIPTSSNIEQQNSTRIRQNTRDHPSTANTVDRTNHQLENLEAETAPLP

Mu-type opioid receptor [9] = target: T1, Mu-type opioid receptor; assay: Agonist activity at FLAG-tagged mu-type opioid receptor (unknown origin) expressed in HEK293 cells assessed as stimulation of ERK1/2 phosphorylation at 1 uM after 10 mins by Western blotting analysis; type: cell-based; conditions: TDE = time-dependent effect
[10] = target: T2, Delta-type opioid receptor (Homo sapiens, UniProt P41143); assay: Agonist activity at Myc-tagged delta-type opioid receptor (unknown origin) expressed in HEK293 cells assessed as inhibition of forskolin-stimulated cAMP accumulation after 30 mins by liquid scintillation counting analysis relative to DAMGO; type: functional, cell-based
T2 sequence (P41143 whole entry): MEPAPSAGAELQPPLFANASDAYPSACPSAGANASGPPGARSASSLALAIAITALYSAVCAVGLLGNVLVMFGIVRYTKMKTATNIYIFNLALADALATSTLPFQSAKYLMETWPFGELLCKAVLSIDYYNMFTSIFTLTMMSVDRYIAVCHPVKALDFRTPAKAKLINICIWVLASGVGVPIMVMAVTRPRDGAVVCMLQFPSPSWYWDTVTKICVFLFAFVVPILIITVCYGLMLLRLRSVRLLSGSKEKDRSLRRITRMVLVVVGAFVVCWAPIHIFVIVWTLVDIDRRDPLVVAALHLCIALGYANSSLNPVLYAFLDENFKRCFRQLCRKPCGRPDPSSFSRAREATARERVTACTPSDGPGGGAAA

[11] = target: T2, Delta-type opioid receptor; assay: Agonist activity at Myc-tagged delta-type opioid receptor (unknown origin) expressed in HEK293 cells assessed as inhibition of forskolin-stimulated cAMP accumulation after 30 mins by liquid scintillation counting analysis; type: functional, cell-based
Mu-type opioid receptor [12] = target: T1, Mu-type opioid receptor; assay: Agonist activity at FLAG-tagged mu-type opioid receptor (unknown origin) expressed in HEK293 cells assessed as inhibition of forskolin-stimulated cAMP accumulation after 30 mins by liquid scintillation counting analysis relative to DAMGO; type: functional, cell-based
Mu-type opioid receptor [13] = target: T1, Mu-type opioid receptor; assay: Agonist activity at FLAG-tagged mu-type opioid receptor (unknown origin) expressed in HEK293 cells assessed as inhibition of forskolin-stimulated cAMP accumulation after 30 mins by liquid scintillation counting analysis; type: functional, cell-based
[14] = target: Mu-type opioid receptor (Mus musculus) (UniProt P42866); assay: Agonist activity at mu-type opioid receptor in Kunming mouse vas deferens assessed as inhibition of electrically evoked muscle contraction in presence of naltrindole
Sequence of Mu-type opioid receptor (Mus musculus) (P42866 whole entry): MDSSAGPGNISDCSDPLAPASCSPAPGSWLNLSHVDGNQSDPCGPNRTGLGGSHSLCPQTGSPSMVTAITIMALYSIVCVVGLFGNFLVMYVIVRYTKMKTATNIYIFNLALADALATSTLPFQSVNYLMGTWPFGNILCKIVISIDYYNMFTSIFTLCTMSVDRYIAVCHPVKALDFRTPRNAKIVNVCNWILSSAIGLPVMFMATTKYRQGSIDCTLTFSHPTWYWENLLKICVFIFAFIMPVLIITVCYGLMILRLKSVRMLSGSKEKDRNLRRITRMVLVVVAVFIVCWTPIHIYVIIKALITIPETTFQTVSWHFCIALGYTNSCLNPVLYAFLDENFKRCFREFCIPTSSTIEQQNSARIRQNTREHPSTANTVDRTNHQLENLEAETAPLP

Mu-type opioid receptor [15] = target: Mu-type opioid receptor (Mus musculus, UniProt P42866); assay: Agonist activity at mu-type opioid receptor in Kunming mouse vas deferens assessed as inhibition of electrically evoked muscle contraction
Sequence of Mu-type opioid receptor (Mus musculus, UniProt P42866) (P42866 whole entry): as above

Mu-type opioid receptor [16] = target: Mu-type opioid receptor (Cavia porcellus, UniProt P97266); assay: Agonist activity at mu-type opioid receptor in guinea pig ileum assessed as inhibition of electrically evoked muscle contraction; type: tissue-based
Sequence of Mu-type opioid receptor (Cavia porcellus, UniProt P97266) (P97266 whole entry): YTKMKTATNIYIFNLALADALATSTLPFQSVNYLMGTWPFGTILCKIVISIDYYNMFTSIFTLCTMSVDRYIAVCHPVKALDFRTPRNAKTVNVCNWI

[17] = Selectivity ratio of Ki for kappa-type opioid receptor (unknown origin) to Ki for FLAG-tagged mu-type opioid receptor (unknown origin); conditions: Homo sapiens
Homo sapiens = species on record: Homo sapiens; assay: Selectivity ratio of Ki for Myc-tagged delta-type opioid receptor (unknown origin) to Ki for FLAG-tagged mu-type opioid receptor (unknown origin)
[18] = target: Kappa-type opioid receptor (Homo sapiens, UniProt P41145); assay: Displacement of [3H]U69,593 from kappa-type opioid receptor (unknown origin) expressed in HEK293 cells after 60 mins by liquid scintillation counting analysis; type: cell-based
Sequence of Kappa-type opioid receptor (P41145 whole entry): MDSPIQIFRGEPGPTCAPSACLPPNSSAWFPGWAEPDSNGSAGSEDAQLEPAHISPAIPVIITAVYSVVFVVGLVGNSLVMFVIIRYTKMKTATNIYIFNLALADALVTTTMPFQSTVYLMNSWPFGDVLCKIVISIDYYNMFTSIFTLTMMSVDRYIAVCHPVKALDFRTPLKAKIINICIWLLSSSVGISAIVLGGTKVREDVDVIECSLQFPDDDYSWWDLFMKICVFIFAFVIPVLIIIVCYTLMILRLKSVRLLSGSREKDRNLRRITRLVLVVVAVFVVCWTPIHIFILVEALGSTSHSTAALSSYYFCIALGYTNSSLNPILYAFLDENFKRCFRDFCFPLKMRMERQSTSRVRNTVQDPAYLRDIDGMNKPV

[19] = target: T2, Delta-type opioid receptor; assay: Displacement of [3H]DPDPE from Myc-tagged delta-type opioid receptor (unknown origin) expressed in HEK293 cells after 60 mins by liquid scintillation counting analysis; type: cell-based
Mu-type opioid receptor [20] = target: T1, Mu-type opioid receptor; assay: Displacement of [3H]DAMGO from FLAG-tagged mu-type opioid receptor (unknown origin) expressed in HEK293 cells after 60 mins by liquid scintillation counting analysis; type: cell-based

SMILES | Activity (Mus musculus [1]) | ED50 (Mus musculus [1]) | Activity (Mus musculus [2]) | Activity (Mus musculus [3]) | Activity (Mus musculus [4]) | Activity (Mus musculus [5]) | Emax [10] | Activity [11] | EC50 [11] | Emax (Mu-type opioid receptor [12]) | EC50 (Mu-type opioid receptor [13]) | inhibition (Mu-type opioid receptor [13]) | inhibition [14] | IC50 (Mu-type opioid receptor [15]) | IC50 (Mu-type opioid receptor [16]) | Ratio Ki [17] | Ratio Ki (Homo sapiens) | Ki [18] | Ki [19] | Ki (Mu-type opioid receptor [20]) | other results
C=C(C(N)=O)[C@@H](NC(=O)[C@H](Cc1c[nH]c2ccccc12)NC(=O)[C@H]1CCN(C(=O)[C@@H](N)Cc2c(C)cc(O)cc2C)C1)c1ccco1 | Dose-dependent effect | 0.00095 µmol/kg | Active | inactive | Active | inactive | 72.2% | Dose-dependent effect | 47.3 nM | 98.6% | 0.000109 nM | Dose-dependent effect | Active | 0.962 nM | 0.834 nM | 14100 | 2380 | 180 nM | 30.4 nM | 0.0128 nM | Activity (Mus musculus [6]): tde; half-life [7]: > 10 h; Activity (Mu-type opioid receptor [8]): Active; Activity (Mu-type opioid receptor [9]): tde
C=C(C(N)=O)[C@@H](NC(=O)[C@H](Cc1c[nH]c2ccccc12)NC(=O)[C@H]1CCN(C(=O)[C@@H](N)Cc2c(C)cc(O)cc2C)C1)c1ccccc1 | Dose-dependent effect | 0.000779 µmol/kg | Active | inactive | Active | inactive | 77.6% | Dose-dependent effect | 40.4 nM | 97.1% | 0.000107 nM | Dose-dependent effect | Active | 1.53 nM | 0.539 nM | 17500 | 1380 | 240 nM | 18.9 nM | 0.0137 nM | Activity (Mus musculus [6]): tde; half-life [7]: > 10 h; Activity (Mu-type opioid receptor [8]): Active; Activity (Mu-type opioid receptor [9]): tde
CN1CC[C@]23c4c5ccc(O)c4O[C@H]2[C@@H](O)C=C[C@H]3[C@H]1C5 |  |  | Active | inactive | Active |  |  |  |  |  |  |  |  |  |  |  |  |  |  |  | 
C=C(C(=O)O)[C@@H](NC(=O)[C@H](Cc1c[nH]c2ccccc12)NC(=O)[C@@H]1CCCN1C(=O)[C@@H](N)Cc1c(C)cc(O)cc1C)c1ccco1 |  |  |  |  |  |  | 76.3% | Dose-dependent effect | 48.9 nM | 96.5% | 0.000516 nM | Dose-dependent effect | Active | 0.533 nM | 0.767 nM | 4940 | 548 | 200 nM | 22.2 nM | 0.0405 nM | 
C=C(C(N)=O)[C@@H](NC(=O)[C@H](Cc1c[nH]c2ccccc12)NC(=O)[C@H]1CCN(C(=O)[C@@H](N)Cc2ccc(O)cc2)C1)c1ccccc1 |  |  |  |  |  |  |  | Dose-dependent effect |  | 95.5% | 0.057 nM | Dose-dependent effect | Active | 4.89 nM | 3.21 nM |  | 9720 |  | 5580 nM | 0.574 nM | 
C=C(C(N)=O)[C@@H](NC(=O)[C@H](Cc1c[nH]c2ccccc12)NC(=O)[C@@H]1CCN(C(=O)[C@@H](N)Cc2ccc(O)cc2)C1)c1ccco1 |  |  |  |  |  |  |  | Dose-dependent effect |  | 96.2% | 0.00853 nM | Dose-dependent effect | Active | 2.91 nM | 1.67 nM |  | 16800 |  | 2780 nM | 0.165 nM | 
C=C(C(N)=O)[C@@H](NC(=O)[C@H](Cc1c[nH]c2ccccc12)NC(=O)[C@H]1CCN(C(=O)[C@@H](N)Cc2ccc(O)cc2)C1)c1ccco1 |  |  |  |  |  |  |  | Dose-dependent effect |  | 94.9% | 0.0933 nM | Dose-dependent effect | Active | 4.9 nM | 8.12 nM |  | 9170 |  | 6950 nM | 0.758 nM | 
C=C(C(N)=O)[C@@H](NC(=O)[C@H](Cc1c[nH]c2ccccc12)NC(=O)[C@@H]1CCN(C(=O)[C@@H](N)Cc2c(C)cc(O)cc2C)C1)c1ccco1 | Dose-dependent effect | 0.000532 µmol/kg | Active | inactive | Active | inactive | 73.8% | Dose-dependent effect | 89.3 nM | 99.5% |  | Dose-dependent effect | Active | 0.548 nM | 0.167 nM | 55100 | 5320 | 205 nM | 19.8 nM | 0.00372 nM | Activity (Mus musculus [6]): tde; half-life [7]: > 10 h; Activity (Mu-type opioid receptor [8]): Active; Activity (Mu-type opioid receptor [9]): tde
C=C(C(N)=O)[C@@H](NC(=O)[C@H](Cc1c[nH]c2ccccc12)NC(=O)[C@@H]1CCN(C(=O)[C@@H](N)Cc2c(C)cc(O)cc2C)C1)c1ccccc1 | Dose-dependent effect | 0.000822 µmol/kg | Active | inactive | Active | inactive | 72.1% | Dose-dependent effect | 47.9 nM | 98.9% |  | Dose-dependent effect | Active | 0.406 nM | 0.226 nM | 17600 | 2770 | 174 nM | 27.3 nM | 0.00986 nM | Activity (Mus musculus [6]): tde; half-life [7]: > 10 h; Activity (Mu-type opioid receptor [8]): Active; Activity (Mu-type opioid receptor [9]): tde
C=C(C(=O)O)[C@@H](NC(=O)[C@H](Cc1c[nH]c2ccccc12)NC(=O)[C@@H]1CCCN1C(=O)[C@@H](N)Cc1c(C)cc(O)cc1C)c1ccccc1 |  |  |  |  |  |  | 77.5% | Dose-dependent effect | 51.6 nM | 97.2% | 0.00013 nM | Dose-dependent effect | Active | 0.556 nM | 0.467 nM | 5960 | 795 | 192 nM | 25.6 nM | 0.0322 nM | 
C=C(C(N)=O)[C@@H](NC(=O)[C@H](Cc1c[nH]c2ccccc12)NC(=O)[C@@H]1CCN(C(=O)[C@@H](N)Cc2ccc(O)cc2)C1)c1ccccc1 |  |  |  |  |  |  |  | Dose-dependent effect |  | 96.8% | 0.0397 nM | Dose-dependent effect | Active | 2.28 nM | 1.82 nM |  | 9490 |  | 2810 nM | 0.296 nM | 
